{"source": "patent US11298369B2", "about": "“Composition and uses thereof” (Progen PG500 Series Pty Ltd, priority 2016, dated 2022)", "key": {"4T1.2 tumours": {"test_system": "4T1.2 tumours", "assay": "4T1.2 tumour model: tumour growth inhibition", "type": "in vivo, Balb/c mice", "details": "day 18, PG545 15 mg/kg weekly, antibody 200 μg intraperitoneally days 1, 4, 8, 11, 15", "description": "Female Balb/c mice (Age 8 weeks; Walter and Eliza Hall Institute of Medical Research (WEHI), Victoria Australia) were inoculated in the intramammary fatpad with 1×10^5 4T1.2 cells in phosphate buffered saline. 4T1.2 is a mouse mammary tumour model.\nThe experiment was ended on day 18 or earlier if an ethical endpoint was met. Blood was collected via cardiac bleed and serum was prepared and frozen at −80° C.\nThe percentage tumour growth inhibition was determined according to the following formula: 100×(1−ΔT/ΔC) where ΔC and ΔT were calculated by subtracting the mean tumour volume in each group on day 1 of treatment from the mean tumour volume on the day of analysis. Statistical analysis of the in vivo data was performed using Graph Pad Prism Version 6.0 (Graph Pad La Jolla, Calif.). An ANOVA analysis was performed followed by Dunnett's post hoc test to compare the tumour growth in the treated groups to the vehicle control."}, "[1]": {"details": "mouse, in vivo, 20 mg/kg", "description": "Mice were weighed and tumours measured 2-3 times weekly using electronic callipers. Tumour volume (mm^3) was calculated as length (mm)/2×width (mm)^2. One week following implantation mice with similar sized tumours (mean tumour volume 56 mm^3) were randomised into 4 groups of 6 animals (Day 1). Treatment groups were saline+control antibody, PG545+control antibody, saline+anti-PD-1 and PG545+anti-PD-1.\n[…] Mice received a small dish containing a food supplement (Ensure mixed with food dust) daily.\nIn FIG. 1, the data represent the mean percent weight change from day 1 for each group; bars are standard error of the mean (SEM). […] It was decided to harvest the experiment on day 18."}, "dendritic cell (DC)": {"test_system": "dendritic cell (DC)", "details": "cited from earlier work"}, "[2]": {"test_system": "tumour-associated macrophages (TAMs) and myeloid-derived suppressor cells (MDSCs)", "details": "preclinical pancreatic cancer models, chemically-induced skin cancer model; cited from earlier work"}, "advanced solid tumours": {"test_system": "advanced solid tumours", "details": "cited from earlier work"}}, "data": [{"compound": "CC(C)CCC[C@@H](C)[C@H]1CC[C@H]2[C@@H]3CC[C@H]4C[C@@H](O[C@@H]5O[C@H](COS(=O)(=O)[O-])[C@@H](O[C@H]6O[C@H](COS(=O)(=O)[O-])[C@@H](O[C@H]7O[C@H](COS(=O)(=O)[O-])[C@@H](O[C@H]8O[C@H](COS(=O)(=O)[O-])[C@@H](OS(=O)(=O)[O-])[C@H](OS(=O)(=O)[O-])[C@H]8OS(=O)(=O)[O-])[C@H](OS(=O)(=O)[O-])[C@H]7OS(=O)(=O)[O-])[C@H](OS(=O)(=O)[O-])[C@H]6OS(=O)(=O)[O-])[C@H](OS(=O)(=O)[O-])[C@H]5OS(=O)(=O)[O-])CC[C@]4(C)[C@H]3CC[C@]12C.[Na+].[Na+].[Na+].[Na+].[Na+].[Na+].[Na+].[Na+].[Na+].[Na+].[Na+].[Na+].[Na+]", "note": "[PG545, 3β,5α-Cholestanyl 2,3,4,6-tetra-O-sodium sulfonato-α-D-glucopyranosyl-(1→4)-2,3,6-tri-O-sodium sulfonato-α-D-glucopyranosyl-(1→4)-2,3,6-tri-O-sodium sulfonato-α-D-glucopyranosyl-(1→4)-2,3,6-tri-O-sodium sulfonato-β-D-glucopyranoside]", "values": [{"measurement": "Tumour growth inhibition (% TGI)", "setting": "4T1.2 tumours", "result": 68, "unit": "%"}, {"measurement": "Tolerability (maximum tolerated dose issues)", "setting": "[1]", "result": "body weight issues"}, {"measurement": "Activation of T cells", "setting": "dendritic cell (DC); PG545 alone, naïve mice and mice bearing A20 lymphoma tumours", "result": "does not activate T cells"}, {"measurement": "Activation of NK cells", "setting": "dendritic cell (DC); via effect on DCs", "result": "potent activation"}, {"measurement": "TAMs and MDSCs within the tumour microenvironment", "setting": "[2]", "result": "depletion"}, {"measurement": "Reductions in tumour size", "setting": "advanced solid tumours; PG545 monotherapy", "result": "did not lead to reductions in tumour size"}, {"measurement": "Maximum tolerated dose", "setting": "advanced solid tumours; once weekly IV infusion, patients with advanced solid tumours", "result": 100, "unit": "mg"}]}]}
